Laboratory results reported in patent US12077503B2, “Substituted cyclic amides and their use as herbicides” (FMC CORPORATION, priority 2015, dated 2024).

Columns and labels:
Type in all cases: in vivo
[1] = system: Kochia (Kochia scoparia); experiment: Test A preemergence; conditions: Preemergence; for Plant response rating, Kochia: 125 g ai/ha, visual injury after approximately 10 d, 0 to 100 scale where 0 is no effect and 100 is complete control; for Kochia plant response rating (0 to 100 scale, 0 is no effect, 100 is complete control): 500 g ai/ha, visual injury approx. 10 d
Procedure, shortened: (§1)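 Ratings of 0 (no effect) to 100 (complete control) come from visual comparison with untreated controls roughly 10 d after treatment. Test chemicals, formulated in a non-phytotoxic solvent mixture with surfactant, were applied either as a preemergence directed soil spray on seeded soil or postemergence to one- to two-leaf plants 2 to 10 cm tall.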

[2] = system: barnyardgrass (Echinochloa crus-galli); experiment: Test A preemergence; conditions: Preemergence; for Plant response rating, Barnyardgrass: 125 g ai/ha, visual injury after approximately 10 d, 0 to 100 scale where 0 is no effect and 100 is complete control; for Barnyardgrass plant response rating (0 to 100 scale, 0 is no effect, 100 is complete control): 500 g ai/ha, visual injury approx. 10 d
Procedure, shortened: as §1

[3] = system: giant foxtail (Setaria faberii); experiment: Test A preemergence; conditions: Preemergence; for Plant response rating, Foxtail, Giant: 125 g ai/ha, visual injury after approximately 10 d, 0 to 100 scale where 0 is no effect and 100 is complete control; for Foxtail, Giant plant response rating (0 to 100 scale, 0 is no effect, 100 is complete control): 500 g ai/ha, visual injury approx. 10 d
Procedure, shortened: as §1

[4] = system: pigweed (Amaranthus retroflexus); experiment: Test A preemergence; conditions: Preemergence; for Plant response rating, Pigweed: 125 g ai/ha, visual injury after approximately 10 d, 0 to 100 scale where 0 is no effect and 100 is complete control; for Pigweed plant response rating (0 to 100 scale, 0 is no effect, 100 is complete control): 500 g ai/ha, visual injury approx. 10 d
[5] = system: ragweed (common ragweed, Ambrosia elatior); experiment: Test A preemergence; conditions: Preemergence; for Plant response rating, Ragweed: 125 g ai/ha, visual injury after approximately 10 d, 0 to 100 scale where 0 is no effect and 100 is complete control; for Ragweed plant response rating (0 to 100 scale, 0 is no effect, 100 is complete control): 500 g ai/ha, visual injury approx. 10 d
Procedure, shortened: as §1

[6] = system: ryegrass, Italian (Italian ryegrass, Lolium multiflorum); experiment: Test A preemergence; conditions: Preemergence; for Plant response rating, Ryegrass, Italian: 125 g ai/ha, visual injury after approximately 10 d, 0 to 100 scale where 0 is no effect and 100 is complete control; for Ryegrass, Italian plant response rating (0 to 100 scale, 0 is no effect, 100 is complete control): 500 g ai/ha, visual injury approx. 10 d
Procedure, shortened: as §1

[7] = system: Galium (catchweed bedstraw, Galium aparine); experiment: Test A postemergence
Procedure, shortened: as §1

[8] = system: Kochia (Kochia scoparia); experiment: Test A postemergence
Procedure, shortened: as §1

[9] = system: barnyardgrass (Echinochloa crus-galli); experiment: Test A postemergence; conditions: for Barnyardgrass plant response rating: 125 g ai/ha, postemergence, visual injury rating on 0 to 100 scale (0 no effect, 100 complete control), approx. 10 d; for Plant response rating, Barnyardgrass: Postemergence, 500 g ai/ha, 0 to 100 scale where 0 is no effect and 100 is complete control
Procedure, shortened: as §1

[10] = system: blackgrass (Alopecurus myosuroides); experiment: Test A postemergence; conditions: for Blackgrass plant response rating: 125 g ai/ha, postemergence, visual injury rating on 0 to 100 scale (0 no effect, 100 complete control), approx. 10 d; for Plant response rating, Blackgrass: Postemergence, 500 g ai/ha, 0 to 100 scale where 0 is no effect and 100 is complete control
Procedure, shortened: as §1

[11] = system: corn (Zea mays); experiment: Test A postemergence
Procedure, shortened: as §1

[12] = system: giant foxtail (Setaria faberii); experiment: Test A postemergence
Procedure, shortened: as §1

[13] = system: pigweed (Amaranthus retroflexus); experiment: Test A postemergence
Procedure, shortened: as §1

[14] = system: ragweed (common ragweed, Ambrosia elatior); experiment: Test A postemergence
Procedure, shortened: as §1

[15] = system: ryegrass, Italian (Italian ryegrass, Lolium multiflorum); experiment: Test A postemergence
Procedure, shortened: as §1

[16] = system: wheat (Triticum aestivum); experiment: Test A postemergence
Procedure, shortened: as §1

[17] = system: barnyardgrass (Echinochloa crus-galli); experiment: Test B flooded paddy test; conditions: Flood, 0 to 100 scale where 0 is no effect and 100 is complete control, 13 to 15 d
Procedure, shortened: (§2)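 Rating scale 0–100 (visual, vs untreated controls) after a 13–15 d greenhouse period; application to the flood layer, 3 cm above soil and maintained; plants at 2-leaf stage when treated.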

[18] = system: ducksalad (Heteranthera limosa); experiment: Test B flooded paddy test; conditions: Flood, 0 to 100 scale where 0 is no effect and 100 is complete control, 13 to 15 d
Procedure, shortened: as §2

[19] = system: rice (Oryra sativa); experiment: Test B flooded paddy test; conditions: Flood, 0 to 100 scale where 0 is no effect and 100 is complete control, 13 to 15 d
Procedure, shortened: as §2

[20] = system: sedge, umbrella (small-flower umbrella sedge, Cyperus difformis); experiment: Test B flooded paddy test; conditions: Flood, 0 to 100 scale where 0 is no effect and 100 is complete control, 13 to 15 d
Procedure, shortened: as §2

[21] = 125 g ai/ha, postemergence, visual injury rating on 0 to 100 scale (0 no effect, 100 complete control), approx. 10 d
[22] = Postemergence, 500 g ai/ha, 0 to 100 scale where 0 is no effect and 100 is complete control
[23] = 125 g ai/ha, postemergence, visual rating after approx. 10 d, 0 to 100 scale (0 no effect, 100 complete control)

| Compound | Plant response rating, Kochia [1] | Kochia plant response rating (0 to 100 scale, 0 is no effect, 100 is complete control) [1] | Plant response rating, Barnyardgrass [2] | Barnyardgrass plant response rating (0 to 100 scale, 0 is no effect, 100 is complete control) [2] | Plant response rating, Foxtail, Giant [3] | Foxtail, Giant plant response rating (0 to 100 scale, 0 is no effect, 100 is complete control) [3] | Plant response rating, Pigweed [4] | Pigweed plant response rating (0 to 100 scale, 0 is no effect, 100 is complete control) [4] | Plant response rating, Ragweed [5] | Ragweed plant response rating (0 to 100 scale, 0 is no effect, 100 is complete control) [5] | Plant response rating, Ryegrass, Italian [6] | Ryegrass, Italian plant response rating (0 to 100 scale, 0 is no effect, 100 is complete control) [6] | Plant response rating, Galium [7, 22] | Plant response rating, Kochia [8, 22] | Barnyardgrass plant response rating [9] | Plant response rating, Barnyardgrass [9] | Blackgrass plant response rating [10] | Plant response rating, Blackgrass [10] | Plant response rating, Corn [11, 22] | Plant response rating, Foxtail, Giant [12, 22] | other results |
| --- | --- | --- | --- | --- | --- | --- | --- | --- | --- | --- | --- | --- | --- | --- | --- | --- | --- | --- | --- | --- | --- |
| O=C1NCC(c2ccc(C(F)(F)F)c(F)c2)C1C(=O)Nc1ccc(F)cc1F (racemic) [Compound 522] | 60 | 60 | 90 | 90 | 90 | 90 | 70 | 80 | 0 | 30 | 30 | 60 | 60 | 50 | 60 | 80 | 30 | 50 | 20 | 90 | Galium plant response rating [7, 21]: 30; Kochia plant response rating [8, 21]: 20; Corn plant response rating [11, 21]: 0; Foxtail, Giant plant response rating [12, 21]: 90; Pigweed plant response rating [13, 21]: 20; Plant response rating, Pigweed [13, 22]: 40; Ragweed plant response rating [14, 21]: 0; Plant response rating, Ragweed [14, 22]: 0; Ryegrass, Italian plant response rating [15, 21]: 20; Plant response rating, Ryegrass, Italian [15, 22]: 40; Wheat plant response rating [16, 21]: 0; Plant response rating, Wheat [16, 22]: 20; Plant response rating, Barnyardgrass ([17]; 250 g ai/ha): 40; Plant response rating, Ducksalad ([18]; 250 g ai/ha): 100; Plant response rating, Rice ([19]; 250 g ai/ha): 0; Plant response rating, Sedge, Umbrella ([20]; 250 g ai/ha): 0 |
| O=C1NCC(c2ccc(Oc3ccccc3)cc2)C1C(=O)Nc1cccc(F)c1F (racemic) [Compound 536] | 0 | 0 | 0 | 0 | 0 | 20 | 0 | 0 | 0 | 0 | 0 | 0 | 0 | 0 | 0 | 0 | 0 | 0 | 0 | 30 | Plant response rating, Galium [7, 23]: 0; Plant response rating, Kochia [8, 23]: 0; Plant response rating, Corn [11, 23]: 0; Plant response rating, Foxtail, Giant [12, 23]: 0; Plant response rating, Pigweed [13, 23]: 0; Plant response rating, Pigweed [13, 22]: 0; Plant response rating, Ragweed [14, 23]: 0; Plant response rating, Ragweed [14, 22]: 0; Plant response rating, Ryegrass, Italian [15, 23]: 0; Plant response rating, Ryegrass, Italian [15, 22]: 0; Plant response rating, Wheat [16, 23]: 0; Plant response rating, Wheat [16, 22]: 0; Plant response rating, Barnyardgrass ([17]; 500 g ai/ha): 30; Plant response rating, Ducksalad ([18]; 500 g ai/ha): 0; Plant response rating, Rice ([19]; 500 g ai/ha): 15; Plant response rating, Sedge, Umbrella ([20]; 500 g ai/ha): 0 |
| O=C1NCC(c2ccc(Oc3ccccc3)cc2)C1C(=O)Nc1ccc(F)c(F)c1F (racemic) [Compound 537] | 0 | 0 | 0 | 0 | 0 | 0 | 0 | 0 | 0 | 0 | 0 | 0 | 0 | 0 | 0 | 0 | 0 | 0 | 0 | 0 | Plant response rating, Galium [7, 23]: 0; Plant response rating, Kochia [8, 23]: 0; Plant response rating, Corn [11, 23]: 0; Plant response rating, Foxtail, Giant [12, 23]: 0; Plant response rating, Pigweed [13, 23]: 0; Plant response rating, Pigweed [13, 22]: 0; Plant response rating, Ragweed [14, 23]: 0; Plant response rating, Ragweed [14, 22]: 0; Plant response rating, Ryegrass, Italian [15, 23]: 0; Plant response rating, Ryegrass, Italian [15, 22]: 0; Plant response rating, Wheat [16, 23]: 0; Plant response rating, Wheat [16, 22]: 0; Plant response rating, Barnyardgrass ([17]; 500 g ai/ha): 30; Plant response rating, Ducksalad ([18]; 500 g ai/ha): 0; Plant response rating, Rice ([19]; 500 g ai/ha): 20; Plant response rating, Sedge, Umbrella ([20]; 500 g ai/ha): 50 |
| O=C1NCC(c2ccc(Oc3ccccc3)cc2)C1C(=O)Nc1ccccc1Cl (racemic) [Compound 538] | 0 | 0 | 0 | 0 | 0 | 0 | 0 | 0 | 0 | 0 | 0 | 0 | 0 | 0 | 0 | 0 | 0 | 0 | 0 | 0 | Plant response rating, Galium [7, 23]: 0; Plant response rating, Kochia [8, 23]: 0; Plant response rating, Corn [11, 23]: 0; Plant response rating, Foxtail, Giant [12, 23]: 0; Plant response rating, Pigweed [13, 23]: 0; Plant response rating, Pigweed [13, 22]: 0; Plant response rating, Ragweed [14, 23]: 0; Plant response rating, Ragweed [14, 22]: 0; Plant response rating, Ryegrass, Italian [15, 23]: 0; Plant response rating, Ryegrass, Italian [15, 22]: 0; Plant response rating, Wheat [16, 23]: 0; Plant response rating, Wheat [16, 22]: 0; Plant response rating, Barnyardgrass ([17]; 500 g ai/ha): 0; Plant response rating, Ducksalad ([18]; 500 g ai/ha): 0; Plant response rating, Rice ([19]; 500 g ai/ha): 0; Plant response rating, Sedge, Umbrella ([20]; 500 g ai/ha): 0 |
